# Measurements as given in patent US20150157588A1, “Pharmaceutical Composition Comprising Amino-Phenyl-Acetic Acid Octadec-(Z)-9-enyl Ester and Use Thereof for Treating Tumors” (Yeda Research and Development Co., Ltd., priority 2012, published 2015).
# System: anti-CD3-activated T cells
# Experiment: Microarray gene expression, T cells activated by anti-CD3 antibody
# Type: cell-based, human
# Details: anti-CD3-activated T cells; for Fold change COL6A3: 201438_at; for Fold change CTSL: 202087_s_at; for Fold change IGF2 /// INS-IGF2: 202409_at; for Fold change IGFBP2: 202718_at; for Fold change SERPINA1: 202833_s_at; for Fold change S100A8: 202917_s_at; for Fold change MET: 203510_at; for Fold change MMP9: 203936_s_at; for Fold change LOC645619 /// LOC731007: 204347_at; for Fold change AK3L1: 204348_s_at; for Fold change SLC7A7: 204588_s_at; for Fold change SERPINB2: 204614_at; for Fold change TTK: 204822_at; for Fold change GNG4: 205184_at; for Fold change ADAMDEC1: 206134_at; for Fold change PLA2G7: 206214_at; for Fold change HCK: 208018_s_at
# Procedure: CD3 positive T cells were extracted from a healthy donor according to a standard protocol, and seeded in T cell medium including RPMI, 10% fetal calf serum, sodium pyruvate, L-Glutamine, and Penicillin/Streptomycin. Following an overnight incubation with medium, the cells were treated by incubating for 2 hours at 37° C. with amino-phenyl-acetic acid octadec-(Z)-9-enyl ester at a concentration of 10 micrograms/ml in a final volume of 10 ml in T-cell medium with or without 0.05% ethanol. After incubation, half the cells from each treatment were centrifuged and 2 ml of Tri-reagent (Sigma) were added to the pellet. The other half of the cells from each treatment were transferred to anti-CD3 antibody coated 24 well plates for an overnight incubation at 37° C. Coating plates with an anti-CD3 antibody was carried out by incubating with 2 micrograms/ml of OKT3 anti-CD3 antibody overnight at 4° C., washing three times with PBS and blocking with filtered 1% Bovine Serum Albumin for 1 hour. After activation with anti-CD3 antibody, cells were centrifuged and 2 ml of Tri-reagent were added to the pellet.
# RNA was extracted from unstimulated cells and from cells activated with anti-CD3 according to standard protocols and used for hybridization with a Human Genome U133A 2.0 (Affymetrix, Catalogue number 900468), according to the manufacturer's instructions. The results of the hybridization were read by a GeneChip scanner 3000 (Affymetrix) and analyzed by QuantArray (GSI lumonics).
# The effects of amino-phenyl-acetic acid octadec-(Z)-9-enyl ester in ethanol solution or in an aqueous vehicle (hereinafter termed “in PBS”) on gene expression in unstimulated T cells and T cells activated by anti-CD3 antibody were compared by microarray analysis.
# [1] = in ethanol solution vs untreated
compound,measurement,setting,value
CCCCCCCC/C=C\CCCCCCCCOC(=O)C(N)c1ccccc1 (stereo not shown) [amino-phenyl-acetic acid octadec-(Z)-9-enyl ester],Fold change IL1B,"39402_at, in ethanol solution vs untreated",2.03
same,Fold change THBS1,"201109_s_at, in ethanol solution vs untreated",1.94
same,Fold Change EIF5A,"201123_s_at, in ethanol solution vs in PBS",−1.97
same,Fold change COL6A3,in ethanol solution vs in PBS,−2.16
same,Fold change COL6A3,[1],−2.06
same,Fold change BNIP3,"201848_s_at, in ethanol solution vs in PBS",−3.39
same,Fold change BNIP3,"201848_s_at, in ethanol solution vs untreated",−2.99
same,Fold change BNIP3,"201849_at, in ethanol solution vs in PBS",−3.34
same,Fold change BNIP3,"201849_at, in ethanol solution vs untreated",−3.24
same,Fold change CTSL,in ethanol solution vs in PBS,2.18
same,Fold change CTSL,[1],2.30
same,Fold change IGF2 /// INS-IGF2,in ethanol solution vs in PBS,−2.42
same,Fold change IGF2 /// INS-IGF2,[1],−2.17
same,Fold change CYP1B1,"202436_s_at, in ethanol solution vs untreated",2.02
same,Fold change IGFBP2,in ethanol solution vs in PBS,−6.02
same,Fold change IGFBP2,[1],−5.13
same,Fold change SERPINA1,in ethanol solution vs in PBS,1.97
same,Fold change SERPINA1,[1],2.12
same,Fold change S100A8,in ethanol solution vs in PBS,2.11
same,Fold change S100A8,[1],2.24
same,Fold Change GBE1,"203282_at, in ethanol solution vs in PBS",−1.92
same,Fold change LMAN1,"203294_s_at, in PBS vs untreated",1.91
same,Fold Change ABCA1,"203504_s_at, in ethanol solution vs in PBS",−1.90
same,Fold change MET,in ethanol solution vs in PBS,2.76
same,Fold change MET,[1],2.35
same,Fold change DFNA5,"203695_s_at, in ethanol solution vs untreated",1.92
same,Fold change MMP9,in ethanol solution vs in PBS,2.67
same,Fold change MMP9,[1],2.74
same,Fold Change CA12,"203963_at, in ethanol solution vs in PBS",2.02
same,Fold Change CA12,"203963_at, in ethanol solution vs untreated",1.91
same,Fold Change CDC6,"203967_at, in ethanol solution vs in PBS",−2.03
same,Fold change FCER1G,"204232_at, in ethanol solution vs untreated",1.94
same,Fold change LOC645619 /// LOC731007,in ethanol solution vs in PBS,−2.52
same,Fold change LOC645619 /// LOC731007,[1],−2.25
same,Fold change AK3L1,in ethanol solution vs in PBS,−3.93
same,Fold change AK3L1,[1],−3.14
same,Fold change MMP1,"204475_at, in ethanol solution vs untreated",2.32
same,Fold Change CA12,"204508_s_at, in ethanol solution vs in PBS",2.09
same,Fold change ABCG1,"204567_s_at, in ethanol solution vs untreated",−2.12
same,Fold change SLC7A7,in ethanol solution vs in PBS,2.05
same,Fold change SLC7A7,[1],2.07
same,Fold change EXO1,"204603_at, in ethanol solution vs untreated",−2.25
same,Fold change SERPINB2,in ethanol solution vs in PBS,2.60
same,Fold change SERPINB2,[1],3.14
same,Fold change TTK,in ethanol solution vs in PBS,−2.04
same,Fold change TTK,[1],−2.40
same,Fold change DOCK4,"205003_at, in ethanol solution vs untreated",2.33
same,Fold change RAD51,"205024_s_at, in ethanol solution vs untreated",−2.09
same,Fold change IL1B,"205067_at, in ethanol solution vs untreated",2.03
same,Fold change GNG4,in ethanol solution vs in PBS,2.04
same,Fold change GNG4,[1],2.23
same,Fold change IL6,"205207_at, in ethanol solution vs untreated",1.95
same,Fold change probeset 205296_at,"205296_at, in ethanol solution vs untreated",−2.02
same,Fold Change WDR76,"205519_at, in ethanol solution vs in PBS",−2.42
same,Fold change AQP9,"205568_at, in ethanol solution vs untreated",2.27
same,Fold change ZC3H11A,"205787_x_at, in PBS vs untreated",1.95
same,Fold change MT3,"205970_at, in ethanol solution vs untreated",−2.05
same,Fold change TNFAIP6,"206025_s_at, in ethanol solution vs untreated",1.92
same,Fold change SFRS6,"206108_s_at, in PBS vs untreated",2.16
same,Fold change ADAMDEC1,in ethanol solution vs in PBS,2.41
same,Fold change ADAMDEC1,[1],2.87
same,Fold change PLA2G7,in ethanol solution vs in PBS,2.12
same,Fold change PLA2G7,[1],3.44
same,Fold change SERPINB7,"206421_s_at, in ethanol solution vs untreated",1.99
same,Fold change IL24,"206569_at, in ethanol solution vs untreated",1.97
same,Fold change CSF3,"207442_at, in ethanol solution vs untreated",2.14
same,Fold Change P4HA1,"207543_s_at, in ethanol solution vs in PBS",−2.20
same,Fold change HCK,in ethanol solution vs in PBS,1.93
same,Fold change HCK,[1],2.14
same,Fold change CASP2,"208050_s_at, in PBS vs untreated",2.04
